# Data reported in patent US9096591B2, “Tetracyclic compounds” (Medivation Technologies, Inc., priority 2007, dated 2015).
# Like-named read-outs stand apart in the source and are kept apart here.
# Columns and labels:
# [1] = molecular target: T1, human recombinant adrenergic α1D receptor (Homo sapiens, UniProt P25100); experiment: Adrenergic α1D radioligand binding ([3H]Prozosin); parameters: Inhibition of ligand binding, Adren. alpha1D: concentration or dose not given beside the values; settings: percent inhibition of specific binding
# T1 construct: expressed in transfected cells; host or cells: HEK-293 cells
# T1 sequence (P25100 1-572): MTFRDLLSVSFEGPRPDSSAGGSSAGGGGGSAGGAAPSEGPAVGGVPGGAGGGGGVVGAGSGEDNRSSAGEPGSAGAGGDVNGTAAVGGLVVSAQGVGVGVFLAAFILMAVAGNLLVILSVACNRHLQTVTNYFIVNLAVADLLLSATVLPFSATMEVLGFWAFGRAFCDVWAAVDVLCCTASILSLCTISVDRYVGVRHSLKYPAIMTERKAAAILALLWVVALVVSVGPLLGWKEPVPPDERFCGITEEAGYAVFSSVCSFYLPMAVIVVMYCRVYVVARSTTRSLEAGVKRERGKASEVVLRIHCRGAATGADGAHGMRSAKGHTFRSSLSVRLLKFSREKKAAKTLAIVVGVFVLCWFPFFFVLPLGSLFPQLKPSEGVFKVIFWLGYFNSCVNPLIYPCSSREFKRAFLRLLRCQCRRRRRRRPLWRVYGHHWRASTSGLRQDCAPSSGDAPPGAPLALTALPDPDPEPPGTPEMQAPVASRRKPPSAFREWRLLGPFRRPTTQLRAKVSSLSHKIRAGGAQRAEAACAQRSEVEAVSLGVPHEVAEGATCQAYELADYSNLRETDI
# Method: Compounds of invention were incubated with 0.6 nM [^3H]Prozosin for 60 minutes at 25° C. Non-specific binding was estimated in the presence of 10 μM phentolamine. Receptor proteins were filtered and washed, the filters were then counted to determine [^3H]Prozosin specifically bound. […] Biochemical assay results are presented as the percent inhibition of specific binding in Table 6.
# [2] = molecular target: T2, human recombinant histamine H2 receptor (Homo sapiens, UniProt P25021); experiment: Histamine H2 radioligand binding ([125I]Aminopotentidine)
# T2 construct: expressed in transfected cells; host or cells: CHO-K1 cells
# T2 sequence (P25021 whole entry): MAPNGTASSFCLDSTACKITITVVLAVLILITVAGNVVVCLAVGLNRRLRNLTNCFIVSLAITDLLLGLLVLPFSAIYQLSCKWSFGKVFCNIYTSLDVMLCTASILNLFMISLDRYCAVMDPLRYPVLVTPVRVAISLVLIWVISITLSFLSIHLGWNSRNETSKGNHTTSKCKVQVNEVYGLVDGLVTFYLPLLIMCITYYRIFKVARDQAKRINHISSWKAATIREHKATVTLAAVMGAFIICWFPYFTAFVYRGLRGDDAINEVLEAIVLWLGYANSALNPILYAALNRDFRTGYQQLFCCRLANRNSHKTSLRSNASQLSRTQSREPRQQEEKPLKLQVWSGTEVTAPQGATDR
# Method: Non-specific binding was estimated in the presence of 3 μM Tiotidine. […] Biochemical assay results are presented as the percent inhibition of specific binding in Table 5.
# Non-specific binding was estimated in the presence of 3 μM Tiotidine. […] Compounds were screened at 1 μM, using 1% DMSO as vehicle. Biochemical assay results are presented as the percent inhibition of specific binding in Table 6.
# [3] = molecular target: T3, human recombinant adrenergic α2B receptor (Homo sapiens, UniProt P18089); experiment: Adrenergic α2B radioligand binding ([3H]Rauwolscine); parameters: Inhibition of ligand binding, Adren. alpha2B: concentration or dose not given beside the values; settings: percent inhibition of specific binding
# T3 construct: expressed in transfected cells; host or cells: CHO-K1 cells
# T3 sequence (P18089 1-450): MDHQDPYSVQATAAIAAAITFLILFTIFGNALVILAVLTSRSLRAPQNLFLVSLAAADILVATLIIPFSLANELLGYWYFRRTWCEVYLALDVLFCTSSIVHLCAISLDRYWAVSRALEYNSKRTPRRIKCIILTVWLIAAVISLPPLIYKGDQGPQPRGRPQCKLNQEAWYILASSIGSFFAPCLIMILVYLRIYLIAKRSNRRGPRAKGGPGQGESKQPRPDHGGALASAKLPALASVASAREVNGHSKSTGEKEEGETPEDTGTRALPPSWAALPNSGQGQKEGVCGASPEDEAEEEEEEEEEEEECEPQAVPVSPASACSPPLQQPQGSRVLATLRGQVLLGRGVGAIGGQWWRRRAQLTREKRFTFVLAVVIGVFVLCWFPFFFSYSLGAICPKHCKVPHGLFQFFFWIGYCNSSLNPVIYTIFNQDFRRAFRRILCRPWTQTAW
# Method: To evaluate in radioligand binding assays the activity of compounds of the invention, human recombinant adrenergic α2B receptor expressed in Chinese hamster ovary (CHO-K1) cells (Uhlen S et al. Eur J. Pharmacol. 343(1):93, 1998) in a modified Tris-HCl buffer (50 mM Tris-HCl, pH 7.4, 12.5 mM MgCl2, 1 mM EDTA, 0.2% BSA) was used. Compounds of the invention were incubated with 2.5 nM [^3H]Rauwolscine for 60 minutes at 25° C. Non-specific binding was estimated in the presence of 10 μM Prozosin. Receptor proteins were filtered and washed, the filters were then counted to determine [^3H]Rauwolscine specifically bound. […] Biochemical assay results are presented as the percent inhibition of specific binding in Table 6.
# [4] = molecular target: T4, human recombinant serotonin (5-Hydroxytryptamine) 5-HT2A receptor (Homo sapiens, UniProt P28223); experiment: Serotonin 5-HT2A radioligand binding ([3H]Ketanserin); settings: percent inhibition of specific binding
# T4 construct: expressed in transfected cells; host or cells: CHO-K1 cells
# T4 sequence (P28223 whole entry): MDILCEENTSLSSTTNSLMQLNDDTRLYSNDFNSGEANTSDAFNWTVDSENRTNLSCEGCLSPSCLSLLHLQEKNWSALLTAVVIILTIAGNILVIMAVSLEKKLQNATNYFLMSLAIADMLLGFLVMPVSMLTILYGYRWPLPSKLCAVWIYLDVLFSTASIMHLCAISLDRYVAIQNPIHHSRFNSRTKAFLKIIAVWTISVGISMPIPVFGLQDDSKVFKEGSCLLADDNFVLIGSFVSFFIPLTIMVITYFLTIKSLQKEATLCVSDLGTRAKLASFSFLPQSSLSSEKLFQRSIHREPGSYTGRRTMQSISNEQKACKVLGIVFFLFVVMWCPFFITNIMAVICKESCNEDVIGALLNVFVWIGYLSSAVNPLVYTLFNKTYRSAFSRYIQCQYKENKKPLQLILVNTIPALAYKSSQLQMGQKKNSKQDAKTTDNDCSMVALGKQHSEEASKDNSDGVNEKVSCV
# Method: Compounds of the invention were incubated with 0.5 nM [^3H]Ketanserin for 60 minutes at 25° C. Non-specific binding was estimated in the presence of 1 μM Mianserin. Receptor proteins were filtered and washed, the filters were then counted to determine [^3H]Ketanserin specifically bound. […] Biochemical assay results are presented as the percent inhibition of specific binding in Table 6.
# [5] = molecular target: T5, human recombinant serotonin (5-Hydroxytryptamine) 5-HT2C receptor (Homo sapiens, UniProt P28335); experiment: Serotonin 5-HT2C radioligand binding ([3H]Mesulergine); parameters: Inhibition of ligand binding, Ser. 5-HT2C: concentration or dose not given beside the values; settings: percent inhibition of specific binding
# T5 construct: expressed in transfected cells; host or cells: CHO-K1 cells
# T5 sequence (P28335 33-458): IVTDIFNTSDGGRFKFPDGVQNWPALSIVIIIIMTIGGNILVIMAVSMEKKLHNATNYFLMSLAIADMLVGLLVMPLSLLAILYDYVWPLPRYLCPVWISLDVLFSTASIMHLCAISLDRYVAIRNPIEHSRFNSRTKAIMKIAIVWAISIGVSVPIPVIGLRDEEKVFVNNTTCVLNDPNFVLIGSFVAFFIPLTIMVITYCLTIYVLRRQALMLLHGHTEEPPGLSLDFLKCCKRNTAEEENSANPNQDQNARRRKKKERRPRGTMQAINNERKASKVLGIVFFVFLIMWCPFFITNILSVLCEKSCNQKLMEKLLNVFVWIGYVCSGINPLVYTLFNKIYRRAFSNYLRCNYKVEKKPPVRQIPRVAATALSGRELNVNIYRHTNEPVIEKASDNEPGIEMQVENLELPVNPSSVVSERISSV
# Method: Compounds of the invention were incubated with 1 nM [^3H]Mesulergine for 60 minutes at 25° C. Non-specific binding was estimated in the presence of 1 μM Mianserin. Receptor proteins were filtered and washed, the filters were then counted to determine [^3H]Mesulergine specifically bound. […] Biochemical assay results are presented as the percent inhibition of specific binding in Table 6.
# [6] = 1 μM compound, 0.1 nM [125I]Aminopotentidine, read-out: Histamine Binding H2, percent inhibition of specific binding
# [7] = percent inhibition of specific binding, screened at 1 μM, read-out: Inhibition of ligand binding, Hist. H2
Structure (SMILES),"Inhibition of ligand binding, Adren. alpha1D [1]","inhibition at 1 µM [2, 6]","inhibition at 1 µM [2, 7]","Inhibition of ligand binding, Adren. alpha2B [3]","Inhibition of ligand binding, Ser. 5-HT2A [4]","Inhibition of ligand binding, Ser. 5-HT2C [5]","inhibition at 0.3 µM ([2]; 0.3 μM compound, 0.1 nM [125I]Aminopotentidine, read-out: Histamine Binding H2, percent inhibition of specific binding)"
"Cc1ccc2c(c1)c1c(n2CCCc2ccccn2)CCN(C)C1 [Compound 233, 2,3,4,5-tetrahydro-2,8-dimethyl-5-(3-(pyridin-2-yl)propyl)-1H-pyrido[4,3-b]indole]",49%,45%,45%,96%,92%,93%,
"CN1CCc2c(c3cc(I)ccc3n2CCc2ccccc2F)C1 [Compound 89, 5-(2-fluorophenethyl)-2,3,4,5-tetrahydro-8-iodo-2-methyl-1H-pyrido[4,3-b]indole]",82%,88%,88%,116%,90%,97%,
"Cc1ccc2c(c1)c1c(n2CCc2ccc(C)nc2)CCNC1 [Compound 230, 2,3,4,5-tetrahydro-8-methyl-5-(2-(6-methylpyridin-3-yl)ethyl)-1H-pyrido[4,3-b]indole]",75%,6%,30%,104%,33%,36%,
Cc1ccc2c(c1)c1c(n2CCc2ccc(C(=O)O)nc2)CCN(C)C1 [Compound 255],2%,-15%,-15%,4%,1%,11%,
"Cc1ccc(CCn2c3c(c4cc(C(=O)O)ccc42)CNCC3)cn1 [Compound 274, 2,3,4,5-tetrahydro-5-(2-(6-methylpyridin-3-yl)ethyl)-1H-pyrido[4,3-b]indole-8-carboxylic acid]",−16%,,-2%,9%,6%,−5%,
"CCN1CCc2c(c3cc(C)ccc3n2CCc2ccc(C)nc2)C1 [Compound 31, 2-ethyl-2,3,4,5-tetrahydro-8-methyl-5-(2-(6-methylpyridin-3-yl)ethyl)-1H-pyrido[4,3-b]indole]",70%,34%,34%,91%,65%,39%,
"CN1CCc2c(c3ccccc3n2CCc2ccncc2)C1 [Compound 10, 2,3,4,5-tetrahydro-2-methyl-5-(2-(pyridin-4-yl)ethyl)-1H-pyrido[4,3-b]indole]",19%,12%,12%,92%,69%,53%,
"CCN1CCc2c(c3ccccc3n2CCc2ccccc2)C1 [Compound 4, 2-ethyl-2,3,4,5-tetrahydro-5-phenethyl-1H-pyrido[4,3-b]indole]",56%,51%,51%,106%,102%,94%,34%
"Cc1ccc2c(c1)c1c(n2CCc2ccccn2)CCN(C)C1 [Compound 21, 2,3,4,5-tetrahydro-2,8-dimethyl-5-(2-(pyridin-2-yl)ethyl)-1H-pyrido[4,3-b]indole]",76%,45%,45%,114%,94%,87%,
"Cc1ccc2c(c1)c1c(n2Cc2ccccc2)CCN(C)C1 [Compound 137, 5-benzyl-2,3,4,5-tetrahydro-2,8-dimethyl-1H-pyrido[4,3-b]indole]",12%,45%,45%,3%,−2%,10%,
CCN1CCc2c(c3ccccc3n2CCc2ccccn2)C1 [Compound 6],6%,-3%,-3%,54%,74%,34%,
